# Experimental data as given in patent publication US10130590B2, “Methods of treating cancer with atovaquone-related compounds” (DANA-FARBER CANCER INSTITUTE, INC., priority 2013, dated 2018).
# Tests used:
# [1] = tested on: STAT3; assay: Western blot of STAT3 phosphorylation in reporter and cancer cell lines; format: cell-based, human; details: U266, 2.5 hours; for STAT3 phosphorylation with UPR activators: tunicamycin 5 μg/ml, thapsigargin 1 μM, brefeldin A 3 μg/ml; for STAT3 phosphorylation (analogs): buparvaquone 12.5 or 25 μM, Sigma analog 1, 5, or 25 μM, relative to vehicle
# Experimental: (§1) Western blotting was performed as previously described (Battle T E, Arbiser J, & Frank D A (2005) The natural product honokiol induces caspase dependent apoptosis in B-cell chronic lymphocytic leukemia (B-CLL) cells. Blood 106(2):690-697). Antibodies to phospho-MAPK (9101), total MAPK (9102), phospho-Y705 STAT3 (9131), phospho-S6 (2215), total S6 (2217), phospho-4E-BP1 (9451), total 4E-BP1 (9644), total RSK (9355), phospho-S6K (9234, 85 used at 1:5000), total S6K (2708), phospho-eIF2α (9721, used at 1:1000), total eIF2α (5324), ATF4 (11815, used at 1:1000), PDGFRβ (3169), IGF1Rβ (9750), EGFR (2232), and HER2 (2242) were from Cell Signaling Technology. Phospho-RSK antibody was from R&D (AF889). Antibodies to total STAT3 (sc-482) and gp130 (sc-656, used at 1:1000) were from Santa Cruz Biotechnology. Phospho-S727 STAT3 antibody was described previously (229). REDD1 antibody was from Proteintech (10638-1-AP, used at 1:1000). Antibody recognizing full-length and cleaved ATF6 was from Abcam (ab122897, used at 1:1000). Antibodies to tubulin (T5168) and beta actin (A5316) were from Sigma. All antibodies were used at 1:10000 dilution for western blot unless otherwise noted. For immunoprecipitations, cells were lysed in 500 μl lysis buffer (0.5% NP-40, 150 mM NaCl, 50 mM Tris pH 7.5, with protease and phosphatase inhibitors freshly added at 1:100 [Pierce, PI78443]) on ice for 15 minutes, then centrifuged for 10 minutes at 14,000 RPM and 4° C. The supernatant was transferred to a new tube and incubated with 10 μl JAK2 antibody (Santa Cruz sc-278) or a mix of two TYK2 antibodies, 10 μl of each (Santa Cruz sc-5271 and Cell Signaling Technology 9312). Immunoprecipitation was performed overnight at 4° C. with rotation. The next day, 75 μl of protein A/G beads (Santa Cruz sc-2003) were washed twice in lysis buffer, then incubated with immunoprecipitates overnight as before. The next day, the beads were spun down (1 min. at 7,500 RPM and 4° C.) and washed 3 times with 650 μl lysis buffer for 10 minutes at 4° C. with rotation, then boiled in 50 μl sample buffer+10% β-mercaptoethanol. For Western blot, 20 μl were loaded per lane. For detection of phospho-tyrosine, a mixture of two pan-phospho-tyrosine antibodies (Cell Signaling Technology 9411 and 9416, 1:1000 of each) was used. Antibody to phospho-Y1007/1008 JAK2 was from Cell Signaling 86 Technology (3771, used at 1:1000). Antibody to phospho-Y570 JAK2 was from Millipore (09-241, used at 1:1000). Luminometric Assays Luciferase reporter cell lines were described previously (186). Firefly luciferase values were normalized by concurrent cell viability. Cell viability was measured as ATP-dependent luminescence by Cell Titer Glo (Promega).
# The mechanism by which atovaquone inhibits STAT3 was investigated. STAT3-luc reporter cells were pre-treated with atovaquone (20 μM) for 1 hr, and then stimulated with IL-6 (10 ng/ml) for 15 minutes, 30 minutes, 1 hours, or 2 hours. Since STAT3 transcriptional activity is critically dependent on tyrosine phosphorylation, Western blotting was performed to see if atovaquone affected STAT3 phosphorylation. […] Next, atovaquone was used to treat U266 (2.5 hours), HEL (6 hours), or INA-6 cells (4 hours). […] In U266 and INA-6 cells, the source of STAT3 activation is JAK-dependent IL-6 signaling, while in HEL cells, STAT3 is activated by mutant JAK2-V617F. Given that atovaquone inhibits constitutive STAT3 activation in cancer cells, it was asked whether atovaquone inhibits expression of endogenous STAT3 target genes in this context.
# Since atovaquone reduced gp130 expression at the cell surface, it was asked whether this effect was accompanied by reduced total gp130 in the cell. To address this question, a time course of atovaquone treatment was performed and total cellular gp130 was measured by Western blotting in U266 cells treated with atovaquone at 20 μM. […]
# [2] = tested on: mTOR pathway; assay: Western blot of mTOR pathway markers (S6, S6K, 4E-BP1); format: cell-based; details: U266, 2.5 hours; buparvaquone 12.5 or 25 μM, Sigma analog 1, 5, or 25 μM; relative to vehicle
# Experimental: as §1
# K562 cells were treated with atovaquone (20 μM) or rapamycin (10 nM) for 1 hour or 5 hours, then analyzed by Western blot. […] The requirement for prolonged treatment to observe mTOR inhibition raised the possibility that this effect was mediated by an induced factor. To test this hypothesis, cells were pretreated with cycloheximide, a protein synthesis inhibitor. K562 cells were pre-treated with vehicle or cycloheximide (2 μg/ml) for 1 hour, then treated with vehicle or atovaquone (20 μM) for 5 hours. […] Similar results were obtained with actinomycin D, an inhibitor of mRNA synthesis.
# To evaluate the role of REDD1, RNA interference was used to knock down its expression in adherent SKBR3 cells, given the relative ease of introducing siRNA into these cells. SKBR3 cells were transfected with control or REDD1 siRNA for 48 hours, then treated with atovaquone (25 μM) for 4 hours.
# Next, U266 cells were treated with 12.5 or 25 μM buparvaquone or 1, 5, or 25 μM 2-(4-(trans-decahydronaphth-2-yl)butyl)-3-hydroxy-1,4-naphthoquinone (Sigma analog), or DMSO vehicle control, for 2.5 hours, after which cells were harvested and immunoblots were performed with antibodies for total and phospho STAT3 and total and phospho S6.
# [3] = tested on: STAT3; assay: STAT3-luc reporter cells, IL-6 stimulated luciferase; format: cell-based; details: 10, 20, 30, or 40 μM for 1 hour, then IL-6 (10 ng/ml) 5 hours; relative to controls
# Experimental: as §1
# To determine if atovaquone inhibits STAT3, it was tested in a cell-based reporter system of STAT3 transcriptional activity (Nelson E A, et al. (2008) Nifuroxazide inhibits survival of multiple myeloma cells by directly inhibiting STAT3. Blood 112(13):5095-5102). These cells lack basal STAT3 activation; upon IL-6 treatment, STAT3 becomes activated and drives transcription of a STAT3-dependent luciferase reporter gene. […] Activity of firefly luciferase was measured and normalized by cell viability (Cell Titer Glo). […]
# STAT3-luc reporter cells were pre-treated with atovaquone, buparvaquone or TDBHN (concentration 10, 20, 30, or 40 μM) for 1 hour, then stimulated with IL-6 (10 ng/ml) for 5 hours. The activity of firefly luciferase was measured and normalized by cell viability (Cell Titer Glo).
# [4] = tested on: gp130; assay: Flow cytometry of cell-surface gp130; format: cell-based; details: U266, 2.5 hours; atovaquone 20 μM, JAK inhibitor 1 1 μM, brefeldin A 3 μg/ml
# Experimental: (§2) Annexin V/PI staining was performed using Annexin V:FITC Apoptosis Detection Kit I (BD Biosciences). Staining for cell cycle analysis was performed as previously described (267). Staining for cell-surface receptors was performed in 50 μl PBS+2% FBS with 2 μl antibody to IL6R (BioLegend #352803) or 5 μl antibody to gp130 (BD Biosciences #555757) for 20 minutes on ice in the dark. Cells were washed twice, then resuspended in 300 μl of the same buffer. Samples were analyzed on a BD FACSCanto II machine. Transfection and siRNA Cells were reverse-transfected using Lipofectamine RNAiMAX (Invitrogen); the culture medium was changed 24 hours later. Control siRNA (D-001210-02) and REDD1 siRNA (M-010855-01) were from Thermo Scientific Dharmacon.
# Since atovaquone reduced gp130 expression at the cell surface, it was asked whether this effect was accompanied by reduced total gp130 in the cell. To address this question, a time course of atovaquone treatment was performed and total cellular gp130 was measured by Western blotting in U266 cells treated with atovaquone at 20 μM. […] Thus, it was surmised that atovaquone also rapidly downregulates cell-surface gp130, paralleling STAT3 inhibition and preceding the decrease in total gp130. […] Loss of cell-surface gp130 may be due to decreased entry into the plasma membrane or increased internalization. In either case, the decrease in total gp130 observed at longer time points is likely due to degradation of relatively unstable intracellular gp130.
# [5] = tested on: IL-6 receptor; assay: Flow cytometry of cell-surface IL-6 receptor; format: cell-based, human; details: U266, 2.5 hours; atovaquone 20 μM, brefeldin A 3 μg/ml
# Experimental: as §2
Molecule,STAT3 phosphorylation with UPR activators [1],S6 phosphorylation (analogs) [2],STAT-3 reporter gene expression [3],STAT3 phosphorylation (analogs) [1],cell-surface expression of gp130 [4],further results
Tunicamycin,only brefeldin A decreased STAT3 phosphorylation,–,–,–,–,–
"CC(C)(C)C1CCC(CC2=C(O)C(=O)c3ccccc3C2=O)CC1 (stereo not drawn) [buparvaquone, 2((4-tert-butylcyclohexyl)methyl)-3-hydroxy-1,4-naphthoquinone]",–,inhibited STAT3 and S6 phosphorylation at all concentrations tested,inhibited STAT-3 reporter gene expression,inhibited STAT3 and S6 phosphorylation at all concentrations tested,–,–
CC(C)(C)c1nc2c3cc[nH]c(=O)c3c3cc(F)ccc3c2[nH]1 [JAK inhibitor 1],–,–,–,–,did not affect gp130 expression,–
"O=C1C(O)=C(CCCCC2CC[C@H]3CCCC[C@@H]3C2)C(=O)c2ccccc21 (relative stereo) [TDBHN, 2-(4-(trans-decahydronaphth-2-yl)butyl)-3-hydroxy-1,4-naphthoquinone]",–,inhibited STAT3 and S6 phosphorylation at all concentrations tested,inhibited STAT-3 reporter gene expression,inhibited STAT3 and S6 phosphorylation at all concentrations tested,–,–
C[C@H]1CCC/C=C/[C@@H]2C[C@H](O)C[C@H]2[C@H](O)/C=C/C(=O)O1 [brefeldin A],decreased STAT3 phosphorylation,–,–,–,reduced the cell surface expression of both gp130 and IL-6 receptor,cell-surface expression of IL-6 receptor [5]: reduced the cell surface expression of both gp130 and IL-6 receptor
C/C=C(/C)C(=O)O[C@H]1C(C)=C2[C@H]([C@@H]1OC(=O)CCCCCCC)[C@@](C)(OC(C)=O)C[C@H](OC(=O)CCC)[C@@]1(O)[C@H]2OC(=O)[C@@]1(C)O [Thapsigargin],only brefeldin A decreased STAT3 phosphorylation,–,–,–,–,–
